The text below walks through data of patent US7696149B2, “Pharmaceutical administration form for peptides, process for its preparation, and use” (AEterna Zentaris GmbH, priority 2000, dated 2010).

Data set [1] in a line: In-vitro release in Ringer's solution (RRS), flow procedure at 37° C. It counts as physicochemical. How it is done:
(§1) After reconstitution of these lyophilizates, the solutions ([…]) are investgated in the following tests for aggregate formation and release behaviour: • Polarization microscopy (pol. mic.): days without aggregation. • Filterability in %: • Cetrorelix solutions are prepared according to a standardized procedure and filtered through 0.22 μm or 0.45 μm filters by means of centrifugation. The concentration of cetrorelix in the filtrate is determined by HPLC and indicated as a % value, based on the starting concentration before filtration (filterability in %). • in-vitro release form (RRS, release in Ringer's solution): • % released after 1 h and after 6 h. • The in-vitro release behaviour is determined at 37° C. in a flow procedure using Ringer's solution as medium. The concentration measurement is carried out by HPLC. Cetrorelix samples, corresponding to 10 mg of cetrorelix base, are weighed into the flow cell, mixed with 4 ml of water and stirred for 10 min.

Data set [2] is described as follows: Rat animal experiment: cetrorelix residual content in the muscle 168 h after injection. The following applies: rat. The class given is in vivo. How it is done: After reconstitution of these lyophilizates, the solutions (2.5 mg/ml of cetrorelix) are investgated in the following tests for aggregate formation and release behaviour: • Polarization microscopy (pol. mic.): days without aggregation. • Filterability in %: • Cetrorelix solutions are prepared according to a standardized procedure and filtered through 0.22 μm or 0.45 μm filters by means of centrifugation. The concentration of cetrorelix in the filtrate is determined by HPLC and indicated as a % value, based on the starting concentration before filtration (filterability in %). • in-vitro release form (RRS, release in Ringer's solution): • % released after 1 h and after 6 h. • The in-vitro release behaviour is determined at 37° C. in a flow procedure using Ringer's solution as medium. The concentration measurement is carried out by HPLC. Cetrorelix samples, corresponding to 10 mg of cetrorelix base, are weighed into the flow cell, mixed with 4 ml of water and stirred for 10 min.
(§2) In the further rat muscle experiments shown in Table 9, in addition to the residual content in the muscle, the cetrorelix content in the plasma was additionally determined.

Data set [3] can be described thus: Polarization microscopy: aggregation of cetrorelix solutions (days without aggregation). It counts as physicochemical. The procedure: By means of polarization microscopy, aggregation investigations were carried out on solutions of various cetrorelix salts without or with addition of excipients.
In the polarization light microscope with crossed polarizers, aggregated peptide solutions show images which are very similar to those of liquid-crystalline structures. In contrast to this, aggregate-free peptide solutions produce no such effects.
as §1

Data set [4] is described as follows: Rat muscle experiment: cetrorelix content in the plasma. The class given is in vivo.
From the text: as §2

The mark [5] stands for this setting: conc. of cetrorelix from lyo 2.5 mg/ml.
[6] abbreviates: dose 1.5 mg/kg, inj. soln 3 mg/ml.
Where [7] appears, read: conc. of cetrorelix from lyo 15 mg/ml.

“And” between values parts separate entries of the source, which are not always exact repeats. Equal values may be shown once. Non-standard residues stand in square brackets, D forms with d. Residues, ends and D or L forms follow the SMILES beside them. dPhe(4-Cl) = N[C@H](Cc1ccc(Cl)cc1)C(=O)O; d2Nal = N[C@H](Cc1ccc2ccccc2c1)C(=O)O; dCit = NC(=O)NCCC[C@@H](N)C(=O)O; d3Pal = N[C@H](Cc1cccnc1)C(=O)O

As to Lactate, in data set [1] (bulk), the “RRS, [%] after 1 h” value is 20% and the “RRS, [%] after 6 h” value is recorded as 55.2%.

Turning to cetrorelix gluconate, the “Cetrorelix content in the muscle (168 h), % of the dose” value in data set [2] (in vivo, 1.5 mg/kg) is recorded as 37.9 % of the dose. The Days without aggregation in data set [3] (2.5 mg/ml cetrorelix gluconate, hydroxypropyl-β-cyclodextrin 20%) is 189 days; in data set [3] (2.5 mg/ml cetrorelix gluconate, hydroxypropyl-β-cyclodextrin […]), 91 days; in data set [3] (2.5 mg/ml cetrorelix gluconate, α-cyclodextrin 5%) it was 1 days; in data set [3] (2.5 mg/ml cetrorelix gluconate, α-cyclodextrin 10%), 140 days; in data set [3] (2.5 mg/ml cetrorelix gluconate, γ-cyclodextrin 20%), 182 days; in data set [3] (2.5 mg/ml cetrorelix gluconate, γ-cyclodextrin […]) it was 126 days. In addition, the Days without aggregation in data set [3] (cetrorelix 2.5 mg/ml, gluconic acid addition: yes, pH 3.0) is listed as >30 days; in data set [3] (cetrorelix 5 mg/ml, gluconic acid addition: no, pH 4.7), 1 days; in data set [3] (cetrorelix 5 mg/ml, gluconic acid addition: no, pH 4.8), 1 days; in data set [3] (cetrorelix 5 mg/ml, gluconic acid addition: yes, pH 3.6), 4 days; in data set [3] (cetrorelix 5 mg/ml, gluconic acid addition: yes, pH 3.8), 4 days; in data set [3] (cetrorelix 7.5 mg/ml, gluconic acid addition: no, pH 4.7), 0 days. The Days without aggregation in data set [3] (cetrorelix 7.5 mg/ml, gluconic acid addition: no, pH 4.8) worked out at 0 days; in data set [3] (cetrorelix 7.5 mg/ml, gluconic acid addition: yes, pH 3.4) it was 1 days; in data set [3] (cetrorelix 7.5 mg/ml, gluconic acid addition: yes, pH 3.7) it was 1 days. Moreover, the “Cetrorelix content in the plasma, % of the dose” value in data set [4] (in vivo, 1.5 mg/kg) is recorded as 46.9 % of the dose. In data set [1] (setting [5]), the “RRS, [%] after 1 h” value is 18% and 11.3%. In data set [1] (setting [5]), the “RRS, [%] after 6 h” value was 45.3% and 46%.

Consider `CC(=O)N[C@H](Cc1ccc2ccccc2c1)C(=O)N[C@H](Cc1ccc(Cl)cc1)C(=O)N[C@H](Cc1cccnc1)C(=O)N[C@@H](CO)C(=O)N[C@@H](Cc1ccc(O)cc1)C(=O)N[C@H](CCCNC(N)=O)C(=O)N[C@@H](CC(C)C)C(=O)N[C@@H](CCCNC(=N)N)C(=O)N1CCC[C@H]1C(=O)N[C@H](C)C(N)=O` [Base, cetrorelix] (Ac-[d2Nal][dPhe(4-Cl)][d3Pal]SY[dCit]LRP[dA]-NH2), for which the “Cetrorelix content in the muscle (168 h), % of the dose” value in data set [2] (setting [6]) was 27.2 % of the dose. Further, in data set [4] (setting [6]), the “Cetrorelix content in the plasma, % of the dose” value is 122.2 % of the dose.

Consider cetrorelix glucuronate, for which the “Cetrorelix content in the muscle (168 h), % of the dose” value in data set [2] (in vivo, 1.5 mg/kg) is recorded as 16.5 % of the dose; in data set [2] (in vivo, 3 mg/kg), 18.8 % of the dose. Moreover, the Days without aggregation in data set [3] (glucuronate salt, cetrorelix 2.5 mg/ml, glucuronic acid addition: no, pH 4.5) is recorded as 3 days; in data set [3] (glucuronate salt, cetrorelix 2.5 mg/ml, glucuronic acid addition: yes, pH 2.9), >30 days; in data set [3] (glucuronate salt, cetrorelix 5 mg/ml, glucuronic acid addition: no, pH 4.6), 0 days; in data set [3] (glucuronate salt, cetrorelix 5 mg/ml, glucuronic acid addition: yes, pH 2.7), >30 days. Besides, the “Cetrorelix content in the plasma, % of the dose” value in data set [4] (in vivo, 1.5 mg/kg) is given as 78.6 % of the dose.

On to Citrate, for which, in data set [1] (setting [7]), the “RRS, [%] after 1 h” value turned out to be 9% and the “RRS, [%] after 6 h” value was found to be 20.3%.

Take Phosphate: the “Cetrorelix content in the muscle (168 h), % of the dose” value in data set [2] (in vivo, 1.5 mg/kg) is given as 32.9 % of the dose. In addition, the “Cetrorelix content in the plasma, % of the dose” value in data set [4] (in vivo, 1.5 mg/kg) is given as 22.6 % of the dose.
